Experiment [1] addresses T1, SUMO-activating enzyme (SAE) (Homo sapiens, UniProt Q9UBT2).
T1 construct: from tissue; host or cells: patients' peripheral blood lymphocytes, skin biopsies and tumor biopsies
T1 sequence (Q9UBT2 1-640): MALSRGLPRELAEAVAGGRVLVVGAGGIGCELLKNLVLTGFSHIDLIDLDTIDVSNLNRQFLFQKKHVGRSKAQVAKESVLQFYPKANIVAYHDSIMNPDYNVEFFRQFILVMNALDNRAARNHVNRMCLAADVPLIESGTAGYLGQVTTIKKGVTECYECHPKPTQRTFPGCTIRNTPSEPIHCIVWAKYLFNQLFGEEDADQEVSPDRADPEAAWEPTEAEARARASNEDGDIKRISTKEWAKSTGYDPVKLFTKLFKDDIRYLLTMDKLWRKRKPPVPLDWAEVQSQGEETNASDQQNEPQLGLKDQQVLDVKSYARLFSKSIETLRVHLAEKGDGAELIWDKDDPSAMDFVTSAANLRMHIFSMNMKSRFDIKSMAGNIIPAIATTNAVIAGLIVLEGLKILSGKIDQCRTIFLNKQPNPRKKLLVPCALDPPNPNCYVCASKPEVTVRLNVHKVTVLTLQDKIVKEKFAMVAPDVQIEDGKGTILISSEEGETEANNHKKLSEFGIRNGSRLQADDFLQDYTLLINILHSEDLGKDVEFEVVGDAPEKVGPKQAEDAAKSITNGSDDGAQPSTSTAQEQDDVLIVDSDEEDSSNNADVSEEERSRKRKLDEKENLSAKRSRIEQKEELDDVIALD
T1 sequence (Q9UBE0 1-346 partner): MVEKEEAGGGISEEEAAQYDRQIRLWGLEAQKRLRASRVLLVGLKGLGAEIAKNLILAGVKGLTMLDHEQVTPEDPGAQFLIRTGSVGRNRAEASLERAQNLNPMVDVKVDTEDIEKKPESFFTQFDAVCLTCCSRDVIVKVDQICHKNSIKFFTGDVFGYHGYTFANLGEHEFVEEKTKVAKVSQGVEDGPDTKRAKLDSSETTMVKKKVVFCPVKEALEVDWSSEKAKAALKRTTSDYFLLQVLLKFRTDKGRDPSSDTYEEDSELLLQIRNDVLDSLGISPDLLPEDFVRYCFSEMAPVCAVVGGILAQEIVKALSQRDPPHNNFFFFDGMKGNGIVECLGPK
Nature of the experiment: Target engagement: SUMO–subasumstat adduct formation in blood lymphocytes, skin and tumor (flow cytometry, IHC). It is filed as in vivo. Here is the method: Blood samples for subasumstat–SUMO adduct formation and SUMO2/3 inhibition assessments were collected before dose and at 1, 4, and 8 hours after the infusion on C1D1 and C1D8. Blood samples for additional biomarker analyses were collected before dose on C1D1 and C1D8 and at 4, 8, and 24 hours after infusion on C1D1 and C1D8. Skin biopsies (used as surrogate tissue for solid tumors) were collected at screening and on C1D8 at 2 hours (±30 minutes) after end of infusion, and tumor biopsies were collected at screening and cycle 2 day 8 (C2D8; +7 days; whenever possible). In blood samples, a custom flow cytometry assay was utilized for detecting target engagement and SUMOylated protein levels in lymphocytes (including T-, B-, and NK-cell subsets). The assay included a PE-conjugated antibody specifically recognizing the SUMO–subasumstat adduct (MIL-113, anti–cysteinyl-TAK-981, Epitomics; refs. [14], [15], [22]) and an AF488-conjugated antibody recognizing SUMO2/3 conjugates (MBL International, cat. #M114-3, RRID: AB_592769). Peripheral blood cells were lysed/fixed, permeabilized (BD Biosciences), and stained with MIL-113 and M114-3 and with antibodies against CD45, CD3, CD19, CD16/CD56, and CD14. IHC assays for SUMO–subasumstat adduct and SUMO2/3 inhibition in skin biopsies and tumors were performed using MIL-113 and M114-3 antibodies. Activation of the IFNI pathway was assessed in peripheral blood by analysis of gene expression data (PanCancer IO 360 panel by NanoString for phase I and whole-transcriptome RNA sequencing data for phase II). Type I IFN gene signature was computed using geometric mean of the following genes: CCL2, CXCL10, DDX58, IRF7, ISG15, STAT1, and STAT2. These seven IFNI-regulated genes were selected prior to the trial, based on in vitro studies of the effect of subasumstat on human blood from 10 healthy donors analyzed on the NanoString PanCancer IO 360 panel. Plasma chemokines and cytokines were measured using the MesoScale Discovery platform (pro-inflammatory and chemokine panels, BioAgilytix). For assessment of NK- and T-cell activation, cells were suspended in buffer and incubated with the following monoclonal antibodies: APC-H7 mouse anti–human CD45 (BD Biosciences, cat. #560274), APC mouse anti–human CD69 (BD Biosciences, cat. #555533), BV421 mouse anti–human CD56 (BD Biosciences, cat. #562751), mouse anti–human CD16 PerCP-Cy5.5 (BD Biosciences, cat. #338440), BV510 mouse anti–human CD4 (BD Biosciences, cat. #563094), BV605 mouse anti–human CD8 (BD Biosciences, cat. #564116), and Alexa Fluor 700 anti–mouse CD3 antibody (BioLegend, cat. #100215), prior to assessment by flow cytometry using the BD Scientific FACSCanto flow cytometer (RRID: SCR_018055). Tumor PD-L1 expression level was assessed in paired tumor biopsies using the 22C3 PD-L1 IHC assay; combined positive score (CPS) was calculated for baseline and on-treatment tumor samples. The immune landscape in the tumor microenvironment (TME) was assessed using an integrated RNAscope and 27-marker MultiOmyx immunofluorescence panel.
In general terms: A flow cytometer gives signals particle by particle.

In experiment [2] the test system is relapsed/refractory NHL. On the set-up: method as in ref 19 = [19]; 19. Assouline S , Mehta A , Phillips T , Alinari L , Danilov AV , Doucet S , . TAK-981, a first-in-class SUMO-activating enzyme inhibitor, combined with rituximab in adult patients (Pts) with CD20-pos. As to conditions: in combination with rituximab; 24 patients with relapsed/refractory NHL; cited from earlier work.

A value given as a limit tells only on which side of the number the result lay.

For `Cc1sc(C(=O)c2cncnc2N[C@@H]2C[C@H](COS(N)(=O)=O)[C@@H](O)C2)cc1[C@@H]1NCCc2ccc(Cl)cc21` [subasumstat], in experiment [1] (all evaluated tumor samples, 8 patients 90 mg twice weekly (C2D8), 1 melanoma patient 25 mg twice weekly (C1D8)), the “Target engagement in tumor samples” value is “robust target engagement”. For the same molecule, the “Dose level from which SUMO–subasumstat adduct formation was detected” value in experiment [1] (peripheral blood lymphocytes, C1D1 and C1D8, phase I) is listed as at least 10 mg. For the same molecule, the “Time to detection of SUMO–subasumstat adduct after end of infusion” value in experiment [1] (peripheral blood lymphocytes, doses ≥10 mg) is at most 1 h. For the same molecule, the “Persistence of target engagement” value in experiment [1] (peripheral blood lymphocytes, twice weekly and once weekly schedules) is “at least 8 hours”. Also, the “Dose from which adduct formation was observed in skin biopsies” value in experiment [1] (skin biopsies 2 hours after the C1D8 dose) is given as at least 10 mg. Moreover, the ORR in experiment [2] was 29%.

The values are drawn from article PMC12627933, “A First-In-Human Study of the SUMOylation Inhibitor Subasumstat in Patients with Advanced/Metastatic Solid Tumors or Relapsed/Refractory Hematologic Malignancies” (Cancer Research Communications, 2025).
